Target: T1, HDAC6 enzyme (Homo sapiens, UniProt Q9UBN7)
T1 construct: prepared by transducing full length HDAC6 gene into Sf-9 insect cells; GST; purchased SignalChem; host or cells: Sf-9 insect cells
T1 sequence (Q9UBN7 1-1215): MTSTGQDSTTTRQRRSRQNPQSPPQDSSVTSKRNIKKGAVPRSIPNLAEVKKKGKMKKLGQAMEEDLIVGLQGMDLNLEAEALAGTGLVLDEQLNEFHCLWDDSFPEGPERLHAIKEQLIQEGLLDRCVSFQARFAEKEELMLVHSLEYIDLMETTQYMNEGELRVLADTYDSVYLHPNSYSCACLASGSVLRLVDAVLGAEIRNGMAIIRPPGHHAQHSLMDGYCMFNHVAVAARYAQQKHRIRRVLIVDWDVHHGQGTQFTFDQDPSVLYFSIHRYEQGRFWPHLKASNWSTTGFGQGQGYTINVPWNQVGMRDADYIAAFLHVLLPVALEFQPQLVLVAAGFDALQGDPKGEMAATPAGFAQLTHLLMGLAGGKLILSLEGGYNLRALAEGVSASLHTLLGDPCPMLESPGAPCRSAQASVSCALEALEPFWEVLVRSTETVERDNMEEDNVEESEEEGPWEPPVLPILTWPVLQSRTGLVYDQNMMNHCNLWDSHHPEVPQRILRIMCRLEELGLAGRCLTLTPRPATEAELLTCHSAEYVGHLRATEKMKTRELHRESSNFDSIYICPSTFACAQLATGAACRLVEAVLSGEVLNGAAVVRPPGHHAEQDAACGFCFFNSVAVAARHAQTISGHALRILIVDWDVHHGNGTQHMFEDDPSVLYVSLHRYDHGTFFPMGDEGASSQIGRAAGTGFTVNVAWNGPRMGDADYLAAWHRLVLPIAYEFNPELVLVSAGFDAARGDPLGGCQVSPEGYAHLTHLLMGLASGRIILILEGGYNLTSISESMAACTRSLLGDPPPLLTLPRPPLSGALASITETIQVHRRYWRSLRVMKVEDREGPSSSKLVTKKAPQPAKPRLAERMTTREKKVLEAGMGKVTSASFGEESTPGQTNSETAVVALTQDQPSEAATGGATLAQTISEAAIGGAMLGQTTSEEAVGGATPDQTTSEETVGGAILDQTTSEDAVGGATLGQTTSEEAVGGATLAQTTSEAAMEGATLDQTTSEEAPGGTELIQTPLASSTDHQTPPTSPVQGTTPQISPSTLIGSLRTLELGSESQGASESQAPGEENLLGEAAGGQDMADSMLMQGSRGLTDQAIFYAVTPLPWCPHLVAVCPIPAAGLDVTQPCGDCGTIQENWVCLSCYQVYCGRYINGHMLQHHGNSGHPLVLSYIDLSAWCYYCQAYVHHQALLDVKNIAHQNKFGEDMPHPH
Assay: HDAC6 enzyme inhibitory assay (HDAC-Glo I/II Assay kit, luminescence)
Format: biochemical
Settings: 10 μM test compound, wells without enzyme = 100% inhibition; for inhibition at 10 µM: read-out: HDAC6 inhibitory rate (%) (10 μM)
Outline: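 Full-length human HDAC6, GST-purified from Sf-9 cells, was preincubated with compound for 60 min at room temperature in Tris-HCl pH 7.5 buffer with glutathione and Tween-20. Substrate-developer was then added, and luminescence was read after 20 min at room temperature. Inhibition was expressed relative to no-enzyme wells, taken as 100% inhibition.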

| inhibition at 10 µM | HDAC6 inhibitory rate (%) (10 μM) | SMILES |
| --- | --- | --- |
| 99% | – | CN(Cc1cccc(N2CCOCC2)c1)N1Cc2ccc(-c3nnc(C(F)F)o3)cc2C1=O [Example 61c, 6-[5-(difluoromethyl)-1,3,4-oxadiazol-2-yl]-2-(methyl{[3-(morpholin-4-yl)phenyl]methyl}amino)-2,3-dihydro-1H-isoindol-1-one] |
| 100% | – | COCCN1C(=O)c2cc(-c3nnc(C(F)F)o3)ccc2OC1(C)c1ccc(F)cc1 (centres unmarked) [Example 52b, 6-[5-(difluoromethyl)-1,3,4-oxadiazol-2-yl]-2-(4-fluorophenyl)-3-(2-methoxyethyl)-2-methyl-2,3-dihydro-4H-1,3-benzoxazin-4-one] |
| 99% | – | N#Cc1cnc(-c2cc(-c3nnc(C(F)F)o3)ccn2)n1Cc1cccc(F)c1 [Example 82a, 2-{4-[5-(difluoromethyl)-1,3,4-oxadiazol-2-yl]pyridin-2-yl}-1-[(3-fluorophenyl)methyl]-1H-imidazole-5-carbonitrile] |
| 99% | – | CN(C(=O)OC(C)(C)C)N1Cc2ncc(-c3nnc(C(F)F)o3)cc2C1=O [Example 68c, tert-butyl {3-[5-(difluoromethyl)-1,3,4-oxadiazol-2-yl]-5-oxo-5,7-dihydro-6H-pyrrolo[3,4-b]pyridin-6-yl}methylcarbamate] |
| 100% | – | Fc1cccc(Cn2ccnc2-c2cc(-c3nnc(C(F)F)o3)ccn2)c1 [Example 71a, 4-[5-(difluoromethyl)-1,3,4-oxadiazol-2-yl]-2-{1-[(3-fluorophenyl)methyl]-1H-imidazol-2-yl}pyridine] |
| 100% | – | CN(Cc1ccnc(F)c1)N1Cc2ccc(-c3nnc(C(F)F)o3)cc2C1=O [Example 51c, 6-[5-(difluoromethyl)-1,3,4-oxadiazol-2-yl]-2-{[(2-fluoropyridin-4-yl)methyl](methyl)amino}-2,3-dihydro-1H-isoindol-1-one] |
| 99% | – | CN(Cc1cccc(C(F)F)c1)N1Cc2ccc(-c3nnc(C(F)F)o3)cc2C1=O [Example 56c, 6-[5-(difluoromethyl)-1,3,4-oxadiazol-2-yl]-2-[{[3-(difluoromethyl)phenyl]methyl} (methyl)amino]-2,3-dihydro-1H-isoindol-1-one] |
| 101% | – | COc1cc(CN(C)N2Cc3ccc(-c4nnc(C(F)F)o4)cc3C2=O)cc(OC)c1 [Example 63c, 6-[5-(difluoromethyl)-1,3,4-oxadiazol-2-yl]-2-{[(3,5-dimethoxyphenyl)methyl](methyl)amino}-2,3-dihydro-1H-isoindol-1-one] |
| 97% | – | Cc1nc(Cn2ccnc2-c2cc(F)cc(-c3nnc(C(F)F)o3)c2)no1 [Example 55a, 3-[(2-{3-[5-(difluoromethyl)-1,3,4-oxadiazol-2-yl]-5-fluorophenyl}-1H-imidazol-1-yl)methyl]-5-methyl-1,2,4-oxadiazole] |
| 100% | – | CN(Cc1ccc(F)cc1)N1Cc2ncc(-c3nnc(C(F)F)o3)cc2C1=O [Example 69c, 3-[5-(difluoromethyl)-1,3,4-oxadiazol-2-yl]-6-{[(4-fluorophenyl)methyl](methyl)amino}-6,7-dihydro-5H-pyrrolo[3,4-b]pyridin-5-one] |
| 99% | – | N#Cc1ccccc1Cn1ccnc1-c1cc(-c2nnc(C(F)F)o2)ccn1 [Example 79a] |

More lines, now with the values behind:

| SMILES | inhibition at 10 µM | HDAC6 inhibitory rate (%) (10 μM) |
| --- | --- | --- |
| CN1C(=O)c2cc(-c3nnc(C(F)F)o3)cnc2CC1(C)c1ccc(F)cc1 (centres unmarked) [Example 25b, 3-[5-(difluoromethyl)-1,3,4-oxadiazol-2-yl]-7-(4-fluorophenyl)-6,7-dimethyl-7,8-dihydro-1,6-naphthyridin-5(6H)-one] | 100% | – |
| CN1C(=O)c2cc(-c3nnc(C(F)F)o3)ccc2CC1c1ccc(F)cc1 (single isomer, unassigned; isomer 1) [Example 41b, 7-[5-(difluoromethyl)-1,3,4-oxadiazol-2-yl]-3-(4-fluorophenyl)-2-methyl-3,4-dihydroisoquinolin-1(2H)-one (Optical Isomer 1)] | 99% | – |
| O=C1c2cc(-c3nnc(C(F)F)o3)ccc2CN1Nc1ccc(F)c(Cl)c1 [Example 37c, 2-(3-chloro-4-fluoroanilino)-6-[5-(difluoromethyl)-1,3,4-oxadiazol-2-yl]-2,3-dihydro-1H-isoindol-1-one] | 99% | – |
| O=C1NN(c2ccc(F)c(Cl)c2)Cc2ccc(-c3nnc(C(F)F)o3)cc21 [Example 31b, 3-(3-chloro-4-fluorophenyl)-7-[5-(difluoromethyl)-1,3,4-oxadiazol-2-yl]-3,4-dihydrophthalazin-1(2H)-one] | 100% | – |
| Fc1cc(-c2nnc(C(F)F)o2)cc(-c2ncccc2OCc2ccccn2)c1 [Example 11a, 2-{3-[5-(difluoromethyl)-1,3,4-oxadiazol-2-yl]-5-fluorophenyl}-3-[(pyridin-2-yl)methoxy]pyridine] | 94% | – |
| CCOC(=O)C(C)CN(C)N1Cc2ccc(-c3nnc(C(F)F)o3)cc2C1=O (centres unmarked) [Example 43c, ethyl 3-[{6-[5-(difluoromethyl)-1,3,4-oxadiazol-2-yl]-1-oxo-1,3-dihydro-2H-isoindol-2-yl}(methyl)amino]-2-methylpropanoate] | 94% | – |
| Fc1cc(-c2nnc(C(F)F)o2)cc(-c2nccn2Cc2ccc(F)c(F)c2)c1 [Example 45a, 2-(difluoromethyl)-5-(3-{1-[(3,4-difluorophenyl)methyl]-1H-imidazol-2-yl}-5-fluorophenyl)-1,3,4-oxadiazole] | 100% | – |
| Fc1cc(-c2nnc(C(F)F)o2)cc(-n2nccc2OC2CCOCC2)c1 [Example 47a, 2-(difluoromethyl)-5-(3-fluoro-5-{5-[(oxan-4-yl)oxy]-1H-pyrazol-1-yl}phenyl)-1,3,4-oxadiazole] | 99% | – |
| O=C1c2cc(-c3nnc(C(F)F)o3)ccc2CN1NCCc1ccc(F)cc1F [Example 19c, 6-[5-(difluoromethyl)-1,3,4-oxadiazol-2-yl]-2-{[2-(2,4-difluorophenyl)ethyl]amino}-2,3-dihydro-1H-isoindol-1-one] | 98% | – |
| Fc1cc(-c2nnc(C(F)F)o2)cc(-c2nccn2Cc2cnccn2)c1 [Example 43a, 2-[(2-{3-[5-(difluoromethyl)-1,3,4-oxadiazol-2-yl]-5-fluorophenyl}-1H-imidazol-1-yl)methyl]pyrazine] | 98% | – |
| CN1C(=O)c2cc(-c3nnc(C(F)F)o3)ccc2OC1(C)c1ccccc1 (centres unmarked) [Example 4b, 6-[5-(difluoromethyl)-1,3,4-oxadiazol-2-yl]-2,3-dimethyl-2-phenyl-2,3-dihydro-4H-1,3-benzoxazin-4-one] | 99% | – |
| CN1C(=O)c2cc(-c3nnc(C(F)F)o3)ccc2OC1(C)c1ccc(F)cc1 (single isomer, unassigned; isomer 2) [Example 9b, 6-[5-(difluoromethyl)-1,3,4-oxadiazol-2-yl]-2-(4-fluorophenyl)-2,3-dimethyl-2,3-dihydro-4H-1,3-benzoxazin-4-one (optical isomer 2)] | – | 96% |
| COC1CCCC(OC(=O)N(Cc2ccc(F)cc2)N2Cc3ccc(-c4nnc(C(F)F)o4)cc3C2=O)C1 (centres unmarked) [Example 24c, 3-methoxycyclohexyl {6-[5-(difluoromethyl)-1,3,4-oxadiazol-2-yl]-1-oxo-1,3-dihydro-2H-isoindol-2-yl}[(4-fluorophenyl)methyl]carbamate] | 100% | – |
| CN1C(=O)c2cc(-c3nnc(C(F)F)o3)cnc2CC1(C)c1ccc(F)c(F)c1 (single isomer, unassigned; isomer 2) [Example 40b, 3-[5-(difluoromethyl)-1,3,4-oxadiazol-2-yl]-7-(3,4-difluorophenyl)-6,7-dimethyl-7,8-dihydro-1,6-naphthyridin-5(6H)-one (optical isomer 2)] | – | 100% |
| CC(C)(C)OC(=O)N(Cc1ccccc1)N1Cc2ccc(-c3nnc(C(F)F)o3)cc2C1=O [Example 4c, tert-butyl benzyl {6-[5-(difluoromethyl)-1,3,4-oxadiazol-2-yl]-1-oxo-1,3-dihydro-2H-isoindol-2-yl}carbamate] | 100% | – |

— patent US12084436B2, “Heterocyclic compound” (Takeda Pharmaceutical Company Limited, priority 2019, dated 2024)
